# pKd: −log10 of the molar value. “And” between values parts separate entries of the source, which are not always exact repeats. Equal entries are not always repeated.
# What was measured:
# AlgXPp [1] = biological target: T1, AlgXPp (Pseudomonas putida, UniProt Q88ND0); assay: Acetylesterase activity assay, pNP-acetate, AlgXPp; format: biochemical; set-up: His6 (C); made in house; host or cells: E. coli Lemo21 (DE3); conditions: pNP-acetate pseudosubstrate; sample as labelled (AlgX alone, Man10 alone, AlgX+Man10); single technical replicates
# Method: (§1) The assay was performed as previously described in refs. [19], [29] with minor modifications. Briefly, standard reactions contained 5 μM protein (AlgKPp, AlgXPp, or AlgKPp-AlgXPp complex) in 50 mM sodium HEPES pH 7.0 and 75 mM NaCl. Reactions were initiated with the addition of pNP-acetate dissolved in ethanol to 2.5 mM. Alginate substrates were added at a final concentration of 0.5 mg/mL. Alginate substrates were purified as previously described[62] from FRD1[66] and FRD462[67]. The hydrolysis and removal of an acetate group from pNP-acetate was monitored in real-time for 10 min at 405 nm for the appearance of p-nitrophenyl. The background hydrolysis rate of pNP-acetate in the absence of enzymes was measured and subtracted from reaction rates. For Supplementary Fig. 11b, a similar assay was performed as previously described in ref. [19], with minor modifications. Briefly, Briefly, standard reactions contained 5 μM protein (AlgKPp, AlgXPp, or AlgKPp-AlgXPp complex) in 50 mM sodium HEPES pH 7.0 and 75 mM NaCl. […] The hydrolysis and removal of an acetate group from 3-carboxyumbelliferyl acetate was monitored in real-time for 10 min using an excitation of 386 nm and an emission of 447 nm. The background hydrolysis rate of 3-carboxyumbelliferyl acetate in the absence of enzymes was measured and subtracted from reaction rates. Data were analysed using GraphPad Prism 9 (Dotmatics).
# Target sequence in this assay (Q88ND0 25-479): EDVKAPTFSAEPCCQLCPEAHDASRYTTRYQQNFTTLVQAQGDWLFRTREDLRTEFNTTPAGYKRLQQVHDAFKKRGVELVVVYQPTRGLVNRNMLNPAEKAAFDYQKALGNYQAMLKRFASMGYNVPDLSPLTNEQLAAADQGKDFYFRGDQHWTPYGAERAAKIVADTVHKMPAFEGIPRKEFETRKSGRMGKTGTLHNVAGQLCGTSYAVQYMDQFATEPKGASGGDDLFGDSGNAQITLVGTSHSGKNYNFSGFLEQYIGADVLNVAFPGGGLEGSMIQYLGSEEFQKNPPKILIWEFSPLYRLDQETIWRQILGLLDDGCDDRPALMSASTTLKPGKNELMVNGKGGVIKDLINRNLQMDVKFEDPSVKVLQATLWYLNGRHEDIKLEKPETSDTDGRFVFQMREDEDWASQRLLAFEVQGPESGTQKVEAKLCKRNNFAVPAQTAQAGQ
# AlgXPp [2] = biological target: T1, AlgXPp; assay: Acetylesterase activity assay, 3-carboxyumbelliferyl acetate, AlgX; format: biochemical; set-up: His6 (C); made in house; host or cells: E. coli Lemo21 (DE3); conditions: AlgX alone; linear regression of raw values minus buffer blank vs time (s); exp1 and exp2, triplicates; Supp. Fig. 14b
# Method: as §1
# Target sequence in this assay (Q88ND0 25-479): as above
# AlgKPp [3] = biological target: T2, AlgKPp (Pseudomonas putida, UniProt Q88NC7); assay: Direct ESI-MS alginate binding assay, AlgKPp; set-up: Induced cells containing either pET26b P. putida AlgK^33–484 or pET24b P. putida AlgX^∆Nterm; His6 (C); made in house; host or cells: E. coli BL21 (DE3) CodonPlus; conditions: 200 mM aqueous ammonium acetate, pH 7, 25 °C, errors one standard deviation, nb = no binding detected
# Method: (§2) AlgXPp and AlgKPp stock solutions were buffer exchanged into 200 mM aqueous ammonium acetate (pH 7) using a 10 kDa cut-off Amicon 0.5 mL microconcentrators (EMD, Millipore, Billerica, MA). Stock solutions of oligosaccharides were prepared by dissolving a known amount of solid compound in Milli-Q water and stored at −20 °C until used. Nanoelectrospray (nanoESI) mass spectrometry measurements were performed on a Q Exactive Orbitrap (Orbitrap) mass spectrometer (Thermo Fisher Scientific, Bremen, Germany) and on a Q Exactive Ultra-High Mass Range Orbitrap mass spectrometer (Thermo Fisher Scientific, Bremen, Germany), both equipped with a nanoflow ESI source. […]
# (§3) Association constants (Ka,kL and Ka,xL) for interactions of AlgKPp and AlgXPp with oligosaccharide ligands were obtained using the direct ESI-MS assay[68],[69]. […] Ka,kL and Ka,xL values were determined from the abundance ratio (R) of the ligand-bound (PL) to free protein (P) ions (P can be AlgKPp or AlgXPp), after correction for nonspecific ligand binding, and the initial concentrations of protein ([P]0) and ligand ([L]0), Eq. (1):1 R/R+1=KaP0+KaL0+1−(1−KaL0+KaP0)^2+4KaL0/2KaP0 where R is taken to be equal to the corresponding equilibrium concentration ratio ([PL]/[P]) in solution, Eq. (2):2 R=∑Ab(PL)/∑Ab(P)=[PL]/[P] and Ka is Ka,kL or Ka,xL.
# AlgKXPp complex = biological target: T3, AlgKXPp complex (Pseudomonas putida, UniProt Q88NC7+Q88ND0); assay: ESI-MS alginate binding assay, AlgKXPp complex (binding model fit); conditions: for Ka (M^−1) (AlgKXPp), apparent association constant: ESI-MS, 200 mM aqueous ammonium acetate, pH 7, 25 °C, errors one standard deviation; for fraction of AlgKXPp bound to ligand: ammonium acetate (200 mM, pH 7.0), mean, n = 3
# T3 construct: Induced cells containing either pET26b P. putida AlgK^33–484 or pET24b P. putida AlgX^∆Nterm; His6 (C); made in house; host or cells: E. coli BL21 (DE3) CodonPlus (AlgK) and E. coli Lemo21 (DE3) (AlgX)
# Method: (§4) AlgXPp and AlgKPp stock solutions were buffer exchanged into 200 mM aqueous ammonium acetate (pH 7) using a 10 kDa cut-off Amicon 0.5 mL microconcentrators (EMD, Millipore, Billerica, MA). Stock solutions of oligosaccharides were prepared by dissolving a known amount of solid compound in Milli-Q water and stored at −20 °C until used. Nanoelectrospray (nanoESI) mass spectrometry measurements were performed on a Q Exactive Orbitrap (Orbitrap) mass spectrometer (Thermo Fisher Scientific, Bremen, Germany) and on a Q Exactive Ultra-High Mass Range Orbitrap mass spectrometer (Thermo Fisher Scientific, Bremen, Germany), both equipped with a nanoflow ESI source. NanoESI was performed by applying a voltage of ~0.8 kV to a platinum wire inserted into the nanoESI tip, which was produced from a borosilicate glass capillary (1.0 mm o.d., 0.78 mm i.d.) pulled to ~2 μm o.d. using a P − 1000 micropipette puller (Sutter Instruments, Novato, CA). The inlet capillary of the MS was heated to 120 °C, the S-lens RF level was set at 100, automatic gain control target was set at 1 × 10^6 with a maximum injection time of 200 ms. All MS data were acquired and processed using Thermo Xcalibur 4.1 software.
# (§5) 3b AlgXPpL⇌AlgXPp+L,Ka,xL=[AlgXPpL]/AlgXPp[L] 3c AlgKXPp⇌AlgKPp+AlgXPp,Ka,kx=[AlgKXPpL]/AlgKPp[AlgXPp] 3d AlgKXPpL⇌AlgKXPp+L,Ka,kxL=[AlgKXPL]/AlgKXPpLL
# (§6) The corresponding mass balance equations are shown below:4a [L]0=[L]+[AlgKPpL]+[AlgXPpL]+[AlgKXPpL] 4b [AlgKPp]0=[AlgKPp]+[AlgKPpL]+[AlgKXPp]+[AlgKXPpL] 4c [AlgXPp]0=[AlgXPp]+[AlgXPpL]+[AlgKXPp]+[AlgKXPpL] where […], […], and [L]0 are initial concentrations of AlgKPp, AlgXPp, and oligosaccharide ligand L; Ka,kL, Ka,xL, and Ka,kx are association constant values determined as described above, and Ka,kxL is unknown parameter found by the fitting of the model to experimental data.
# AlgXPp [4] = biological target: T1, AlgXPp; assay: Direct ESI-MS alginate binding assay, AlgXPp; set-up: His6 (C); made in house; host or cells: E. coli Lemo21 (DE3); conditions: 200 mM aqueous ammonium acetate, pH 7, 25 °C, errors one standard deviation
# Method: as §2, §3
# Target sequence in this assay (Q88ND0 25-479): as above
# AlgKXPp = AlgKXPp (Pseudomonas putida, UniProt Q88NC7+Q88ND0); assay: NanoESI-MS ligand titration of the AlgK-AlgX mixture, Ka,kxL fitted from the ligand-bound fraction of the complex with a coupled-equilibria model, 200 mM aqueous ammonium acetate pH 7, 25 °C by the table title (21 °C in the methods).; format: binding; conditions: n = 3; read-out: Ka (M^-1) (AlgKXPp)
# Method: as §4
# The Ka,kx for the interaction of AlgKPp and AlgXPp with the formation of AlgKXPp complex was obtained using the Slow Mixing Mode (SLOMO) ESI-MS assay. Briefly, ~2 µL of a solution of AlgXPp (5 µM) and AlgKPp (3–10 µM) was introduced into the nanoESI tip, followed by injection of 10 µL of solution of AlgXPp (5 µM) and AlgKPp (45 µM). The binding measurements were carried out at 21 °C; time-resolved mass spectra were averaged over 1 min intervals and the sum of the charge state-normalized abundances of the […] and AlgKXPp complex ions were calculated automatically using the SWARM software (https://github.com/pkitov/CUPRA-SWARM)[72]. The corrected (for response factors) abundances of AlgXPp and AlgKXPp species were used to calculate R/(R+1) values for AlgKPp (designated as L) and AlgXPp (designated as P) interaction and association constant Ka,kx was found using Eq. (1) (Ka,kx in this case designated as Ka in Eq. (1)).
# as §5, §6
# AlgKPp [5] = biological target: T2, AlgKPp; assay: Direct nanoESI-MS binding assay of the single proteins with reference protein correction for nonspecific binding, 200 mM aqueous ammonium acetate pH 7, 25 °C by the table title (21 °C in the methods).; set-up: gene algK; conditions: read-out: Ka (M^-1) (AlgKPp); Ka (M^-1) (AlgXPp)
# Method: as §4
# (§7) Association constants (Ka,kL and Ka,xL) for interactions of AlgKPp and AlgXPp with oligosaccharide ligands were obtained using the direct ESI-MS assay[68],[69]. The binding measurements were carried out at 21 °C, and the equilibrium mixtures were prepared by mixing aliquots of the stock solutions of proteins and ligands in aqueous ammonium acetate (200 mM). ESI-MS measurements were performed after a 1 h incubation time period. All mass spectra were corrected, when needed, for the occurrence of nonspecific carbohydrate-protein binding during the ESI process using the reference protein method. Ka,kL and Ka,xL values were determined from the abundance ratio (R) of the ligand-bound (PL) to free protein (P) ions (P can be AlgKPp or AlgXPp), after correction for nonspecific ligand binding, and the initial concentrations of protein ([P]0) and ligand ([L]0), Eq. (1):1 R/R+1=KaP0+KaL0+1−(1−KaL0+KaP0)^2+4KaL0/2KaP0 where R is taken to be equal to the corresponding equilibrium concentration ratio ([PL]/[P]) in solution, Eq. (2):2 R=∑Ab(PL)/∑Ab(P)=[PL]/[P] and Ka is Ka,kL or Ka,xL.
# AlgXPp [6] = biological target: T1, AlgXPp; assay: as above; set-up: gene algX; conditions: read-out: Ka (M^-1) (AlgKPp); Ka (M^-1) (AlgXPp)
# Method: as §4, §7
# Target sequence in this assay (Q88ND0 whole entry): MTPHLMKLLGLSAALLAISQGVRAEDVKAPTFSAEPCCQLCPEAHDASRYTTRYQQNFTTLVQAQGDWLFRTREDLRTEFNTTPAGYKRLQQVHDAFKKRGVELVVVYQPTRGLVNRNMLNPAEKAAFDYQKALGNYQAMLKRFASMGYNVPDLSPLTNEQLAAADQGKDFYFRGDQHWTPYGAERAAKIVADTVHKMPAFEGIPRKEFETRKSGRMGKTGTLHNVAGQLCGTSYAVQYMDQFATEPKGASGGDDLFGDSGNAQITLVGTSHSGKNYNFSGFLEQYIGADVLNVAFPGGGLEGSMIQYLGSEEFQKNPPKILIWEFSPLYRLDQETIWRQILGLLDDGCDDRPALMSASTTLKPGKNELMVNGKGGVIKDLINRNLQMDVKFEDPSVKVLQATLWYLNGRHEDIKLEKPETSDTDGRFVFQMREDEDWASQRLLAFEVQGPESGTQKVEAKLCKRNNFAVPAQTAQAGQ
# [7] = initial ligand concentration 50 µM
# [8] = initial ligand concentration 100 µM
# [9] = initial ligand concentration 155 µM
# [10] = initial ligand concentration 211 µM
# [11] = initial ligand concentration 265 µM
# [12] = initial ligand concentration 322 µM
# T3 sequence (Q88ND0 25-479): as the sequence (Q88ND0 25-479) above
# T3 sequence (Q88NC7 33-484): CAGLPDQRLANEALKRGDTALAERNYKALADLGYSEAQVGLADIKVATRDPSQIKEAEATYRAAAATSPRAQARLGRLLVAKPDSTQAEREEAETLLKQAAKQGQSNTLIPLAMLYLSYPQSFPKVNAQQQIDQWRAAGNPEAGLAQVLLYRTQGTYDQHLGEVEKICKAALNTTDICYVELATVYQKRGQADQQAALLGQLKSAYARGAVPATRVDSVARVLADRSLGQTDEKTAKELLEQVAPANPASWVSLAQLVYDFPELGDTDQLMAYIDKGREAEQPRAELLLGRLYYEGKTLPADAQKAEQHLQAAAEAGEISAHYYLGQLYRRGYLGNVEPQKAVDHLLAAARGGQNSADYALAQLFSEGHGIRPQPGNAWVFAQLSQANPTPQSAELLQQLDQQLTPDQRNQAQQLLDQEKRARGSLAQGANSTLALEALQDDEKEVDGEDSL
# T2 sequence (Q88NC7 33-484): as above
# AlgKXPp, sequence (Q88ND0 whole entry): as the sequence (Q88ND0 whole entry) above
# AlgKXPp, sequence (Q88NC7 33-484): as the sequence (Q88NC7 33-484) above
Compound,"slope values: rate of acetylesterase activity, absorbance value at 405 nm per second (AlgXPp [1])",slope values used in graph (AlgXPp [2]),"Ka (M^−1) (AlgKPp), apparent association constant (AlgKPp [3])","Ka (M^−1) (AlgKXPp), apparent association constant (AlgKXPp complex)",fraction of AlgKXPp bound to ligand (AlgKXPp complex; [7]),fraction of AlgKXPp bound to ligand (AlgKXPp complex; [8]),fraction of AlgKXPp bound to ligand (AlgKXPp complex; [9]),fraction of AlgKXPp bound to ligand (AlgKXPp complex; [10]),fraction of AlgKXPp bound to ligand (AlgKXPp complex; [11]),fraction of AlgKXPp bound to ligand (AlgKXPp complex; [12]),"Ka (M^−1) (AlgXPp), apparent association constant (AlgXPp [4])",pKd (AlgKXPp),pKd (AlgKPp [5]),pKd (AlgXPp [6])
"AlgX: P. putida KT2440 AlgX 1–479, His-tagged terminal alginate acetyltransferase",5.128e-5 and 6.734e-5 and 4.103e-5,20818 and 20884 and 19338 and 14321 and 14083 and 15487,,,,,,,,,,,,
CCCO[C@@H]1O[C@H](C(=O)O)[C@@H](O[C@@H]2O[C@H](C(=O)O)[C@@H](O[C@@H]3O[C@H](C(=O)O)[C@@H](O[C@@H]4O[C@H](C(=O)O)[C@@H](O[C@@H]5O[C@H](C(=O)O)[C@@H](O[C@@H]6O[C@H](C(=O)O)[C@@H](O[C@@H]7O[C@H](C(=O)O)[C@@H](O)[C@H](O)[C@@H]7O)[C@H](O)[C@@H]6O)[C@H](O)[C@@H]5O)[C@H](O)[C@@H]4O)[C@H](O)[C@@H]3O)[C@H](O)[C@@H]2O)[C@H](O)[C@@H]1O [ManA7],,,(4.2 ± 0.4) × 10^2 M^−1,(10 ± 1.0) × 10^2 M^−1,0.028,0.08,0.15,0.20,0.21,0.24,(2.6 ± 0.3) × 10^2 M^−1,,,
CCCO[C@@H]1O[C@H](C(=O)O)[C@@H](O[C@@H]2O[C@H](C(=O)O)[C@@H](O[C@@H]3O[C@H](C(=O)O)[C@@H](O[C@@H]4O[C@H](C(=O)O)[C@@H](O[C@@H]5O[C@H](C(=O)O)[C@@H](O[C@@H]6O[C@H](C(=O)O)[C@@H](O)[C@H](O)[C@@H]6O)[C@H](O)[C@@H]5O)[C@H](O)[C@@H]4O)[C@H](O)[C@@H]3O)[C@H](O)[C@@H]2O)[C@H](O)[C@@H]1O [ManA6],,,(3.1 ± 0.5) × 10^2 M^−1,(7.8 ± 0.8) × 10^2 M^−1,0.04,0.08,0.11,0.11,0.16,0.22,(1.9 ± 0.7) × 10^2 M^−1,2.89,2.49,2.28
